{"source": "patent US20220378756A1", "about": "“ACTIVATING PYRUVATE KINASE R” (FORMA Therapeutics, Inc., priority 2019, published 2022)", "tested_on": "2,3-DPG, ATP and p50 in blood", "assay": "Phase 1 SAD/MAD, healthy volunteers: pharmacodynamics", "type": "in vivo, human", "settings": "for median reduction in the concentration of 2,3-DPG, relative to baseline: HV MAD; for Median Percentage Change in 2,3-DPG Levels / Median Percentage Change in ATP Levels (Day 14) / Mean Absolute Change in p50 (mmHg) (Day 14): HV; for Mean Absolute Change in p50 (mmHg) (Day 14): vs baseline", "text": "This is a first-in-human (FIH), Phase 1 study of Compound 1 that will characterize the safety, PK, and PD of Compound 1 after a single dose and after repeated dosing first in healthy adult volunteers and then in adolescents or adults with sickle cell disease. Initially, a dose range of Compound 1 in single ascending dose (SAD) escalation cohorts will be explored in healthy subjects. Enrollment of healthy subjects into 2-week multiple ascending dose (MAD) escalation cohorts will be initiated once the safety and PK from at least two SAD cohorts is available to inform the doses for the 2-week MAD portion of the study. The MAD cohorts will then run in parallel to the single dose cohorts. A single dose cohort is planned to understand food effects (FE) on the PK of Compound 1. […] Multiple dose studies in SCD subjects will then be initiated upon completion of MAD studies in healthy volunteers. Compound 1 will be administered in 25 mg and 100 mg tablets delivered orally.\nIn this study, SAD/MAD cohorts are randomized (3 to 1) to receive Compound 1 or placebo (P). Compound 1 was evaluated first in 4 healthy SAD cohorts and 4 healthy MAD (14-day dosing period) cohorts. Based on the safety, and PK/PD profile from HS, Compound 1 is then evaluated in 1 SCD SAD cohort and 2 SCD MAD cohorts. Specifically, based on the safety and pharmacokinetic/pharmacodynamics (PK/PD) profile in healthy volunteer studies, Compound 1 is evaluated in patients (pts) with SCD, first in a single dose (SD or SAD) cohort and then in multiple-dose (MD or MAD) cohorts (14-day and 12-week). Safety assessments include AEs, vital signs, ECGs and laboratory parameters. PK/PD blood sampling was performed on Day 1 (SAD/MAD) and Day 14 (MAD) and up to 72 h after the last dose and at the end-of-study visit. PD parameters included 2,3-DPG, ATP, and p50 in all cohorts with additional PD studies (including oxygen scan) performed only in the SCD cohorts. PD parameters included 2,3-DPG, ATP, p50, RBC deformability with controlled deoxygenation and reoxygenation (Lorrca® oxygen scan) and varying osmolality (Lorrca® osmoscan)). To maintain study blind, pt identifiers were removed when needed.\nFour healthy SAD cohorts were evaluated at doses of 200, 400, 700, and 1000 mg, and four healthy MAD cohorts received 200 to 600 mg total daily doses for 14 days at QD or BID dosing (100 mg BID, 200 mg BID, 300 mg BID, and 400 mg QD). In the food effect (FE) cohort, 10 healthy subjects received 200 mg of Compound 1 QD with and without food.\nIn the SAD cohorts, the subjects' blood 2,3-DPG levels were measured periodically after dosing by a qualified LC-MS/MS method for the quantitation of 2,3-DPG in blood. Decreased 2,3-DPG blood levels were observed 6 hours following a single dose of Compound 1 at all dose levels (earlier timepoints were not collected). Maximum decreases in 2,3-DPG levels generally occurred ˜24 hours after the first dose with the reduction sustained ˜48-72 hr postdose. Table 16 reports the median percentage change in 2,3-DPG blood levels, relative to baseline, measured over time in healthy volunteers after a single dose of Compound 1 (200 mg, 400 mg, 700 mg, or 1000 mg) or placebo. Accordingly, the median reduction in the concentration of 2,3-DPG, relative to baseline, was at least about […] at all dose levels tested 24 hours after administration of the single dose.\nIn the MAD cohorts, the subjects' blood 2,3-DPG levels were measured periodically after dosing by a qualified LC-MS/MS method for the quantitation of 2,3-DPG in blood. The maximum decrease in 2,3-DPG on Day 14 was 55% from baseline (median). […] Table 18 reports the median percentage change in 2,3-DPG blood levels, relative to baseline, measured over time after the first dose on days 1 and 14 in healthy volunteers who received daily doses of Compound 1 (100 mg BID, 200 mg BID, or 300 mg BID) or placebo for 14 days. […]", "key": {"[1]": {"settings": "100 mg BID, Day 14, 0 h after first daily dose"}, "[2]": {"settings": "100 mg BID, Day 14, 6 h after first daily dose"}, "[3]": {"settings": "100 mg BID, Day 14, 8 h after first daily dose"}, "[4]": {"settings": "100 mg BID, Day 14, 12 h after first daily dose"}, "[5]": {"settings": "100 mg BID, Day 14, 16 h after first daily dose"}, "[6]": {"settings": "100 mg BID, Day 14, 24 h after first daily dose"}, "[7]": {"settings": "100 mg BID, Day 14, 48 h after first daily dose"}, "[8]": {"settings": "100 mg BID, Day 14, 72 h after first daily dose"}, "[9]": {"settings": "200 mg BID, Day 14, 0 h after first daily dose"}, "[10]": {"settings": "200 mg BID, Day 14, 6 h after first daily dose"}, "[11]": {"settings": "200 mg BID, Day 14, 8 h after first daily dose"}, "[12]": {"settings": "200 mg BID, Day 14, 12 h after first daily dose"}, "[13]": {"settings": "200 mg BID, Day 14, 16 h after first daily dose"}, "[14]": {"settings": "200 mg BID, Day 14, 24 h after first daily dose"}, "[15]": {"settings": "200 mg BID, Day 14, 48 h after first daily dose"}, "[16]": {"settings": "200 mg BID, Day 14, 72 h after first daily dose"}}, "data": [{"smiles": "O=C([C@H](CO)c1ccccc1)N1CC2=C(C1)CN(S(=O)(=O)c1cnc3c(c1)OCCO3)C2", "note": "(single isomer, unassigned) [Compound 1]", "values": [{"measurement": "maximum decrease in 2,3-DPG from baseline (median)", "setting": "HV MAD cohorts, Day 14", "result": 55, "unit": "%"}, {"measurement": "median reduction in the concentration of 2,3-DPG, relative to baseline", "setting": "all dose levels, 24 hours after first dose on day 1", "result": "at least 25%"}, {"measurement": "median reduction in the concentration of 2,3-DPG, relative to baseline", "setting": "all dose levels, 24 hours after first dose on day 14", "result": "at least 40%"}, {"measurement": "median reduction of p50", "setting": "HV SAD, all dose levels, 24 hours after a single dose", "result": "3-5 mmHg"}, {"measurement": "Median Percentage Change in 2,3-DPG Levels", "setting": "100 mg BID, Day 1, 0 h after first daily dose", "result": 0.0, "unit": "%"}, {"measurement": "Median Percentage Change in 2,3-DPG Levels", "setting": "100 mg BID, Day 1, 6 h after first daily dose", "result": "−16.1", "unit": "%"}, {"measurement": "Median Percentage Change in 2,3-DPG Levels", "setting": "100 mg BID, Day 1, 8 h after first daily dose", "result": "−12.1", "unit": "%"}, {"measurement": "Median Percentage Change in 2,3-DPG Levels", "setting": "100 mg BID, Day 1, 12 h after first daily dose", "result": "−18.1", "unit": "%"}, {"measurement": "Median Percentage Change in 2,3-DPG Levels", "setting": "100 mg BID, Day 1, 16 h after first daily dose", "result": "−18.4", "unit": "%"}, {"measurement": "Median Percentage Change in 2,3-DPG Levels", "setting": "100 mg BID, Day 1, 24 h after first daily dose", "result": "−27.8", "unit": "%"}, {"measurement": "Median Percentage Change in 2,3-DPG Levels", "setting": "[1]", "result": "−42.0", "unit": "%"}, {"measurement": "Median Percentage Change in ATP Levels (Day 14)", "setting": "[1]", "result": 41.5, "unit": "%"}, {"measurement": "Median Percentage Change in 2,3-DPG Levels", "setting": "[2]", "result": "−44.3", "unit": "%"}, {"measurement": "Median Percentage Change in ATP Levels (Day 14)", "setting": "[2]", "result": 43.8, "unit": "%"}, {"measurement": "Median Percentage Change in 2,3-DPG Levels", "setting": "[3]", "result": "−44.7", "unit": "%"}, {"measurement": "Median Percentage Change in ATP Levels (Day 14)", "setting": "[3]", "result": 47.8, "unit": "%"}, {"measurement": "Median Percentage Change in 2,3-DPG Levels", "setting": "[4]", "result": "−43.6", "unit": "%"}, {"measurement": "Median Percentage Change in ATP Levels (Day 14)", "setting": "[4]", "result": 45.4, "unit": "%"}, {"measurement": "Median Percentage Change in 2,3-DPG Levels", "setting": "[5]", "result": "−43.9", "unit": "%"}, {"measurement": "Median Percentage Change in ATP Levels (Day 14)", "setting": "[5]", "result": 44.8, "unit": "%"}, {"measurement": "Median Percentage Change in 2,3-DPG Levels", "setting": "[6]", "result": "−44.1", "unit": "%"}, {"measurement": "Median Percentage Change in ATP Levels (Day 14)", "setting": "[6]", "result": 55.0, "unit": "%"}, {"measurement": "Median Percentage Change in 2,3-DPG Levels", "setting": "[7]", "result": "−34.7", "unit": "%"}, {"measurement": "Median Percentage Change in ATP Levels (Day 14)", "setting": "[7]", "result": 52.2, "unit": "%"}, {"measurement": "Median Percentage Change in 2,3-DPG Levels", "setting": "[8]", "result": "−20.2", "unit": "%"}, {"measurement": "Median Percentage Change in ATP Levels (Day 14)", "setting": "[8]", "result": 49.2, "unit": "%"}, {"measurement": "Mean Absolute Change in p50 (mmHg) (Day 14)", "setting": "200 mg BID for 14 days", "result": "−4.14", "unit": "mmHg"}, {"measurement": "Median Percentage Change in 2,3-DPG Levels", "setting": "200 mg BID, Day 1, 0 h after first daily dose", "result": 0.0, "unit": "%"}, {"measurement": "Median Percentage Change in 2,3-DPG Levels", "setting": "200 mg BID, Day 1, 6 h after first daily dose", "result": "−13.1", "unit": "%"}, {"measurement": "Median Percentage Change in 2,3-DPG Levels", "setting": "200 mg BID, Day 1, 8 h after first daily dose", "result": "−22.3", "unit": "%"}, {"measurement": "Median Percentage Change in 2,3-DPG Levels", "setting": "200 mg BID, Day 1, 12 h after first daily dose", "result": "−23.1", "unit": "%"}, {"measurement": "Median Percentage Change in 2,3-DPG Levels", "setting": "200 mg BID, Day 1, 16 h after first daily dose", "result": "−33.9", "unit": "%"}, {"measurement": "Median Percentage Change in 2,3-DPG Levels", "setting": "200 mg BID, Day 1, 24 h after first daily dose", "result": "−43.5", "unit": "%"}, {"measurement": "Median Percentage Change in 2,3-DPG Levels", "setting": "[9]", "result": "−48.2", "unit": "%"}, {"measurement": "Median Percentage Change in ATP Levels (Day 14)", "setting": "[9]", "result": 55.3, "unit": "%"}, {"measurement": "Median Percentage Change in 2,3-DPG Levels", "setting": "[10]", "result": "−48.5", "unit": "%"}, {"measurement": "Median Percentage Change in ATP Levels (Day 14)", "setting": "[10]", "result": 48.1, "unit": "%"}, {"measurement": "Median Percentage Change in 2,3-DPG Levels", "setting": "[11]", "result": "−44.3", "unit": "%"}, {"measurement": "Median Percentage Change in ATP Levels (Day 14)", "setting": "[11]", "result": 58.4, "unit": "%"}, {"measurement": "Median Percentage Change in 2,3-DPG Levels", "setting": "[12]", "result": "−42.2", "unit": "%"}, {"measurement": "Median Percentage Change in ATP Levels (Day 14)", "setting": "[12]", "result": 56.2, "unit": "%"}, {"measurement": "Median Percentage Change in 2,3-DPG Levels", "setting": "[13]", "result": "−42.9", "unit": "%"}, {"measurement": "Median Percentage Change in ATP Levels (Day 14)", "setting": "[13]", "result": 57.0, "unit": "%"}, {"measurement": "Median Percentage Change in 2,3-DPG Levels", "setting": "[14]", "result": "−44.3", "unit": "%"}, {"measurement": "Median Percentage Change in ATP Levels (Day 14)", "setting": "[14]", "result": 64.0, "unit": "%"}, {"measurement": "Median Percentage Change in 2,3-DPG Levels", "setting": "[15]", "result": "−38.7", "unit": "%"}, {"measurement": "Median Percentage Change in ATP Levels (Day 14)", "setting": "[15]", "result": 58.9, "unit": "%"}, {"measurement": "Median Percentage Change in 2,3-DPG Levels", "setting": "[16]", "result": "−20.2", "unit": "%"}, {"measurement": "Median Percentage Change in ATP Levels (Day 14)", "setting": "[16]", "result": 54.0, "unit": "%"}, {"measurement": "Mean Absolute Change in p50 (mmHg) (Day 14)", "setting": "300 mg BID for 14 days", "result": "−5.34", "unit": "mmHg"}, {"measurement": "Median Percentage Change in 2,3-DPG Levels", "setting": "300 mg BID, Day 1, 0 h after first daily dose", "result": 0.0, "unit": "%"}, {"measurement": "Median Percentage Change in 2,3-DPG Levels", "setting": "300 mg BID, Day 1, 6 h after first daily dose", "result": "−18.8", "unit": "%"}, {"measurement": "Median Percentage Change in 2,3-DPG Levels", "setting": "300 mg BID, Day 1, 8 h after first daily dose", "result": "−23.8", "unit": "%"}, {"measurement": "Median Percentage Change in 2,3-DPG Levels", "setting": "300 mg BID, Day 1, 12 h after first daily dose", "result": "−31.6", "unit": "%"}]}]}
